# Where a name gives a salt, the structure may show the parent alone.
# System: voltage operated calcium channels
# Assay: Inhibition of potassium (depolarization) stimulated 45Ca uptake into rat cerebral cortex synaptosomes
# Format: biochemical, male Wistar rat
# Settings: concentration inhibiting 20% of potassium stimulated 45Ca uptake, corrected for basal uptake, 145 mM KCl, 15 seconds, 37° C.
# Text: A high influx of calcium from extracelluar compartments into neurons is seen after opening of voltage operated calcium channels. Such opening of calcium channels may be induced by depolarization of neuronal membranes.
# A crude synaptosome preparation contains small vesicles surrounded by neuronal membranes, and it is possible to study an opening of the voltage operated calcium channels in such a preparation.
# In the below described test influx of ^45 Ca into synaptosomes is studied under depolarized conditions. The effect of test substances on the depolarization induced calcium uptake can thus be studied.
# The cerebral cortex from a male Wistar rat is homogenized in 20 ml ice cold 0.32M saccharose. In the following steps the temperature is kept at 0° C. to 4° C. The homogenate is centrifuged at 1,000×g for 10 minutes and the supernatant recentrifuged for 20 minutes at 18,000×g. […]
# The ^45 Ca uptake is stopped by filtering through glass fibre filters, which are subsequently washed 3 times with an ice cold solution of 145 mM KCl, 7 mM EGTA and 20 mM Tris HCl, pH 7.4 (5. ml). The radioactivity on the filters are measured by liquid scintillation spectrometry. […]
# The test value is given as IC20, that is the concentration in μM of the test substances, which inhibit 20% of the potassium stimulated uptake of ^45 Ca. […] The IC20 value is determined from a dose response curve.
row,SMILES,IC20
1,"c1ccc(CN2CCN=C2CN(Cc2ccccc2)c2ccccc2)cc1 [1-benzyl-2-(N-phenyl-N-benzyl-methanamine)-4,5-dihydro-imidazole, hydrochloride]",400 nM
2,"O=C(c1ccccc1)C(c1ccccc1)N1CCN=C1CN(Cc1ccccc1)c1ccccc1 (stereo not drawn) [1-(α-Benzoylbenzyl)-2-(N-phenyl-N-(benzyl)-methanamine)-4,5-dihydro-imidazole]",400 nM

# Source: patent US5296493A, “1-substituted-2-(N-pheny l-N-(phenylmethyl)methanamine)-4,5-dihydro-imidazoles and related compounds and their use in treating calcium overload in brain cells” (NeuroSearch A/S, priority 1991, dated 1994)
